Results on twelve compounds are retold here after patent US9150508B2, “Sulfonamide compounds and their use in the modulation retinoid-related orphan receptor” (Glaxo Group Limited, priority 2011, dated 2015).

SMILES strings stand for the structures.

The test concerns IL-17A secreted from antiCD3/CD28 stimulated Peripheral Blood Mononuclear cells (PBMC). In words: Peripheral Blood Mononucleocyte Cell Assay (PBMC Assay-IL-17). It is filed as cell-based. To be noted: inhibition of IL-17A release, CD3/CD28 bead stimulated human PBMC, 48 hours; read-out: mean pIC50 (converted). The text has this:
Peripheral Blood Mononucleocyte Cell Assay (PBMC Assay-IL-17)
RORs (Retinoic Acid Related Orphan Receptors) are members of the class 1 nuclear receptor family. RORs regulate gene transcription by binding to specific DNA response element (RORE) as a monomer and have critical roles of in development, immunity, circadian rhythm, and cellular metabolism (recently reviewed by A Jetten, Nuclear Receptor Signaling, 2009, 7, 1-32) One member of this nuclear receptor family, RORγt, has been identified as a regulator of differentiation and development of IL-17-expressing human and mouse CD4+ T cells, so called Th17 cells which play a role in both host defence and inflammatory disorders. RORγt is also required for transcription of the genes encoding IL-17A and IL-17F in iNKT, NKT (Immunol 2009, 2(5), 383-392, J. Immunol, 2008, 180, 51(67), 5171-5171), γδTcells (J. Resp and Crit. Care Med 2010, 182(4), 464-476), CD8^+ Tcell (J Leukocyte Biol, 2007, 82(2), 354-360) and finally CD4-CD8-TCRαβ^+ T cells (J. Immunol. 2008, 181 8761-8766). Additional immune cells such as eosinophils, neutrophils and macrophages can also be source of IL17A in some allergic inflammation related to asthma (J Allergy Clin Immunol 2001, 108, 430-438; J. Immunol, 2008, 181, 6117-6124; Immunity, 2004, 21, 467-476), however, the link with RORγt has not yet been confirmed in the literature.
This assay is designed to measure levels of IL-17A secreted from antiCD3/CD28 stimulated frozen Peripheral Blood Mononuclear cells (PBMC) isolated from human blood with the aim of identifying inhibitors of IL-17A release.
• 1. Ensure no external endotoxin is present in media and reagents used in the assay. • 2. The compounds for screening are dispensed into a master plate at 10 mM top concentration which are serially diluted 1:3 across 11 points in DMSO, then 500 nl is transferred into a 384-well flat-bottomed Greiner plate to which 50 ul of cell suspension is added: for the single shot screening the highest concentration of compound is 10^−5M; for 11 point full curve dose response studies the highest concentration is […]. • Controls: • As a low control, DMSO (as supplied, for example, by VWR) (final concentration 1%) in column 6 (16 points). • As a high control, 5-(4-fluorophenyl)-2-ureidothiophene-3-carboxamide (obtainable from, for example, Sigma) at a final concentration of 10^−4 M in DMSO should be used in column 18 (16 points). • If the compounds dispensed earlier than the day of the assay, they should be kept at −20° C.
Protocol Step 2: Day 1: Thawing and Handing of PBMC • 1. Thaw PBMC in the vial using water bath (37° C.). […] Transfer the contents of the vial into 50 mL Falcon tube. • 3. Add 10 mL of Assay Media drop by drop to decrease the concentration of DMSO (as supplied, for example, by VWR) in the freezing media gradually. • 4. Spin down the cells in a centrifuge (1000 rpm-5 mins). • 5. Decant the supernatant. • 6. Re-suspend the cells in 10 mL of Assay Media. • 7. Transfer of 0.1 mL of suspension into Cedex counting tube. • 8. Add 0.9 mL of media to achieve volume of the suspension for counting up to 1 mL. Count the cells on Cedex using 1:10 dilution factor settings. • 9. Make the cell suspension at the concentration 8×10^5 cells/mL. to give a final number of 40,000 cells/well. Protocol Step 3: Day 1: Stimulation of PBMC with CD3/CD28 beads • 1. Add well mixed CD3/CD28 Dynabeads (as supplied, for example, by Dynal) to achieve ratio bead:cell=2:1 (i.e a dilution of 1 in 20). Mix thoroughly. • 2. Dispense the suspension into the 384 Assay Plates using Multidrop (50 ul per well). • If the volume of cell suspension is large, mix the suspension after dispensing into every other plate. • 3. Cover the plates with the lids and place them to the humidified incubator (37° C., 5% CO2) for 48 hours. Protocol Step 4: Day 2: MSD plates preparation • 1. […]
Regarding `CCCCc1ccc(N(CC(C)C)S(=O)(=O)c2ccc(OCc3c(C)noc3C)cc2)c(C)c1` [Product P23], the IC50 is no more than 1000 nM. With `Cc1ccc(C)c(N(CC(C)C)S(=O)(=O)c2ccc(OCc3c(C)noc3C)cc2)c1` [Product P37] the figure was no more than 1000 nM; with `Cc1cc(C)cc(N(CC(C)C)S(=O)(=O)c2ccc(OCc3c(C)noc3C)cc2)c1` [Product P118], no more than 1000 nM; with `Cc1ccc(N(CC(C)C)S(=O)(=O)c2ccc(OCc3ccncc3)cc2)c(C)c1` [Product P123], no more than 1000 nM. The same measure for `Cc1ccc(N(CC(C)C)S(=O)(=O)c2ccc(COCc3ccncc3)cc2)c(C)c1` [Product P128]: no more than 1000 nM. With `Cc1ccc(N(CC(C)C)S(=O)(=O)c2ccc(OCc3ncn(C)n3)cc2)c(C)c1` [Product P132] the figure was no more than 1000 nM; with `Cc1ccccc1N(CC(C)C)S(=O)(=O)c1ccc(OCc2c(C)noc2C)cc1` [Product P137], no more than 1000 nM; with `Cc1ccc(N(CC(C)C)S(=O)(=O)c2ccc(OCc3ccncn3)cc2)c(C)c1` [Product P143], no more than 1000 nM.

Turning to `Cc1cc(Br)ccc1N(CC(C)C)S(=O)(=O)c1ccc(OCc2c(C)noc2C)cc1` [Product P144], the IC50 is no more than 1000 nM. The same measure for `Cc1ccc(N(CC(C)C)S(=O)(=O)c2ccc(OCc3ncnn3C)cc2)c(C)c1` [Product P147]: no more than 1000 nM.

On to `Cc1cc(C(C)(C)O)ccc1N(CC(C)C)S(=O)(=O)c1ccc(OCc2c(C)noc2C)cc1` [Product P155, 4-((3,5-dimethylisoxazol-4-yl)methoxy)-N-(4-(2-hydroxypropan-2-yl)-2-methylphenyl)-N-isobutylbenzenesulfonamide], for which the IC50 is no more than 1000 nM. The same measure for `Cc1ccc(N(CC(C)C)S(=O)(=O)c2ccc(C(=O)O)cc2)c(C)c1` [Product P179, 4-(N-(2,4-dimethylphenyl)-N-isobutylsulfamoyl)benzoic acid]: greater than 100000 nM.
